Patent US12240844B2 (Voronoi, Inc., priority 2019, dated 2025)

Columns and labels:
MDA-MB-231 cell line = test: MDA-MB-231 cancer cell proliferation inhibition (Cell Titer-Glo); assay type: cell-based; conditions: Homo sapiens, MDA-MB-231 triple-negative breast cancer cell line, 72 hours
Method in brief: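 GI50 comes from CellTiter-Glo luminescence, read 10 min after reagent addition at RT, following 72 h compound treatment. Eleven concentrations were used (⅓ steps, highest 10 μM final) on 2000 cells/well. MDA-MB-231 and MDA-MB-468 were grown in DMEM, SHP-77 in RPMI.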

human GST-CLK1 (129-end) = molecular target: T1, human GST-CLK1 (129-end) (Homo sapiens, UniProt P49759); test: GST-CLK1 enzyme inhibition, ADP-Glo kinase assay; assay type: biochemical; conditions: ATP 10 uM
T1 construct: purified human GST-CLK1 (129-end, Signalchem) enzyme; GST; purchased Signalchem
T1 sequence (P49759 129-484 limits assumed): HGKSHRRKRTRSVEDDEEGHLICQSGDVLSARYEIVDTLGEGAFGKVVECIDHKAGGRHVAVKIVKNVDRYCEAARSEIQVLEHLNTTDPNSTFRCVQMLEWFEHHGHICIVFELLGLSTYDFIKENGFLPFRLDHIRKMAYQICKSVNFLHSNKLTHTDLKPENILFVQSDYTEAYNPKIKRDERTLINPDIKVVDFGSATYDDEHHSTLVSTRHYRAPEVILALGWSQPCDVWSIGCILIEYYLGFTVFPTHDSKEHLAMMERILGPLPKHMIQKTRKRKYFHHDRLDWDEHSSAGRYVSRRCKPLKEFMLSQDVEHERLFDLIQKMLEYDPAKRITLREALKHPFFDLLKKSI
Method in brief: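 GST-CLK1 (129-end, 3 ng) reacted with 10 uM ATP and substrate in 40 mM Tris-HCl pH 7.4, 20 mM MgCl2, 0.5 mg/mL BSA, 50 uM DTT, 1 h at 25° C. ADP-Glo luminescence normalised to solvent control; IC50 from triplicate data.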

LRRK2 = LRRK2 (Homo sapiens, UniProt Q5S007); test: LRRK2 enzyme inhibition, ADP-Glo kinase assay; assay type: biochemical; parameters: purchased Invitrogen PR8604B
Chain of LRRK2 (Q5S007 970-2527 limits assumed): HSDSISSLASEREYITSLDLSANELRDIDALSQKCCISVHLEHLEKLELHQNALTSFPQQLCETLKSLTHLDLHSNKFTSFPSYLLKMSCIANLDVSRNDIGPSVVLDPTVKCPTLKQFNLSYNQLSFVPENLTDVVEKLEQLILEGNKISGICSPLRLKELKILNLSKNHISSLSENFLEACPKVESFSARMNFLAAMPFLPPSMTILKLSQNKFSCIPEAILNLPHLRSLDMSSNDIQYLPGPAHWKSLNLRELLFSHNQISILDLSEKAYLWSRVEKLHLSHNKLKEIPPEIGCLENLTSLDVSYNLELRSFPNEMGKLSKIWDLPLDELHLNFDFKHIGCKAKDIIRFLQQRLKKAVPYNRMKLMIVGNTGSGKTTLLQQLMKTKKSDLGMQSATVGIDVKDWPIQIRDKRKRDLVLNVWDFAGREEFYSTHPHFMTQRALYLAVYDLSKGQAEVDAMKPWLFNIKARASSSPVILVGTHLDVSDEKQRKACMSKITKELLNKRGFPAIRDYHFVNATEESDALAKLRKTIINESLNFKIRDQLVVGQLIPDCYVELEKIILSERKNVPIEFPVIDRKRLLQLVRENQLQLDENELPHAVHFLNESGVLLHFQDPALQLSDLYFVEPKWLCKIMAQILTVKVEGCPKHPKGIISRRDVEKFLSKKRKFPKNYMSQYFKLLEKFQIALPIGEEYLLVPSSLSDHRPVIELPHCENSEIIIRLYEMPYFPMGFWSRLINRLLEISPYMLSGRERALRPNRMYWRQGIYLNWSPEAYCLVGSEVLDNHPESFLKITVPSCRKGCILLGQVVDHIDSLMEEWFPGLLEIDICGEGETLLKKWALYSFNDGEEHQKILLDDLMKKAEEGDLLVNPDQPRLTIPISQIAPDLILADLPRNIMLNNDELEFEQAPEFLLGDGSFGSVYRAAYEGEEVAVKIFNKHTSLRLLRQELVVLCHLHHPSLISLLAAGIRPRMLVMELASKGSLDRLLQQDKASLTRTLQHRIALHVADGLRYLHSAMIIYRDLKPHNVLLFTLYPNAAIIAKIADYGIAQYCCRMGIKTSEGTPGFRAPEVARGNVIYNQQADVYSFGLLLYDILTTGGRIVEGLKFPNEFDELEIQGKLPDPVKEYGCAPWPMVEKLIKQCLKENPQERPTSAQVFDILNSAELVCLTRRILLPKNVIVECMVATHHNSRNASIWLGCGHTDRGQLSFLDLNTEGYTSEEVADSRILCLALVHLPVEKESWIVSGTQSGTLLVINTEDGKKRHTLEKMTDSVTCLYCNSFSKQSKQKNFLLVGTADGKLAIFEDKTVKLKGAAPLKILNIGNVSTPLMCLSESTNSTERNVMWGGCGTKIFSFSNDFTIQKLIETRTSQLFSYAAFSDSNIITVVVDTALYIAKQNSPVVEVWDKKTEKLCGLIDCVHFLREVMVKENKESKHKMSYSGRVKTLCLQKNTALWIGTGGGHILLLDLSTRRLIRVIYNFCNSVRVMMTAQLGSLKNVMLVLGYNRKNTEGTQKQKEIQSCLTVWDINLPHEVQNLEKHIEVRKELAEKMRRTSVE
Method in brief: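 Purified human LRRK2 (25 ng) in 40 mM Tris-HCl pH7.4, 20 mM MgCl2, 0.5 mg/ml BSA, 50 μM DTT with 10 μM ATP and substrate ([…]), 2 h at 25° C. Final compound 50 to 0.000001024 μM, 12-point dilution. ADP-Glo luminescence vs solvent control; IC50 (nM).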

[1] = molecular target: T2, human GST-DYRK1A (full length) (Homo sapiens, UniProt Q13627); test: GST-DYRK1A enzyme inhibition, ADP-Glo kinase assay; assay type: biochemical; conditions: read-out: DYRK1 IC50
T2 construct: purified human GST-DYRK1A (full length, Thermo scientifics) enzyme; GST; purchased Thermo scientifics
Method in brief: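 Full-length human GST-DYRK1A (10 ng) incubated with 10 uM ATP and specific substrate for 1 h at 25° C in 40 mM Tris-HCl pH 7.4, 20 mM MgCl2, 0.5 mg/mL BSA, 50 uM DTT. ADP formation read by ADP-Glo luminescence; IC50 (nM) versus solvent control, triplicate.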

Row | GI50 (MDA-MB-231 cell line) | IC50 (human GST-CLK1 (129-end)) | IC50 (LRRK2) | IC50 [1] | SMILES
1 | 301 to 1000 nM | 101 to 300 nM | < 100 nM | < 100 nM | CCNc1cc(Nc2ccc(P3(=O)CCN(C(C)=O)CC3)cc2OC)nc2[nH]cc(C(F)(F)F)c12 [Example 42, 1-(4-(4-((4-(ethylamino)-3-(trifluoromethyl)-1H-pyrrolo[2,3-b]pyridin-6-yl)amino)-3-methoxyphenyl)-4-oxido-1,4-azaphosphinan-1-yl)ethan-1-one]
2 | 301 to 1000 nM | 301 to 1000 nM | < 100 nM | 301 to 1000 nM | COCCNc1cc(Nc2ccc(P3(=O)CCN(C4CC4)CC3)cc2OC)nc2[nH]cc(C#N)c12 [Example 148, 6-((4-(1-cyclopropyl-4-oxido-1,4-azaphosphinan-4-yl)-2-methoxyphenyl)amino)-4-((2-methoxyethyl)amino)-1H-pyrrolo[2,3-b]pyridine-3-carbonitrile]
